Reference: US7653490B2, “Nuclear magnetic resonance assembly of chemical entities” (Triad Liquidating Company LLC, priority 2001, dated 2010)

Assays:
p38α MAP kinase = p38α MAP kinase (Homo sapiens, UniProt Q16539); experiment: Phosphorylation of myelin basic protein (MBP) by p38α; format: biochemical
Method: The TTM2001.101.A09 bi-ligand compound and the fragments from which it was constructed were tested as inhibitors of p38α enzymatic activity in an assay measuring phosphorylation of myelin basic protein (MBP) by p38α.

p38α [1] = target: T1, p38α (Homo sapiens, UniProt Q16539); experiment: Fluorescence polarization displacement of fluorescently tagged staurosporine; format: binding
T1 sequence (Q16539 whole entry): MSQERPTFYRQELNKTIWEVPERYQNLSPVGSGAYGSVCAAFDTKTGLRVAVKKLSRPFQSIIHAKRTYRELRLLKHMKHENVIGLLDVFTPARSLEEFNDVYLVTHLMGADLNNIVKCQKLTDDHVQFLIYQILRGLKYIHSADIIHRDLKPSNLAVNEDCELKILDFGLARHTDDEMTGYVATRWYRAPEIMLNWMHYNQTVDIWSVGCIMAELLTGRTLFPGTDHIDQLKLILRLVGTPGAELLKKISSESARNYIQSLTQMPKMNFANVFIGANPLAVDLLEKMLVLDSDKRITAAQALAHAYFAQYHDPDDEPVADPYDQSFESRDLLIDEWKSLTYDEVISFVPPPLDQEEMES

[2] = target: unactivated p38α MAP kinase (Homo sapiens, UniProt Q16539); experiment: WaterLOGSY NMR binding screen; details: 10 to 30 micromolar p38α, 0.1 to 1.0 millimolar compound, 4° C.
Sequence of unactivated p38α MAP kinase (Q16539 whole entry): as above
Source text: A library of 29 PBBA structure analogs was screened against unlabeled p38α MAP kinase (p38α) as follows. Samples containing 10 to 30 micromolar concentration of unactivated p38α MAP kinase and 0.1 to 1.0 millimolar concentration of one of the PBBA structure analogs were obtained. The samples were screened using WaterLOGSY with saturations times of 2 s (frequency selective excitation via a train of 232 6 ms π pulses with a GAUSS profile at an 80 Hz RF field strength) with solvent suspension using WATERGATE at 4° C. WaterLOGSY is further described in Dalvit et al. J. Biomol. NMR 21:349-59 (2001) Dalvit et al. J. Magn. Res. B112:282-288 (1996) and Dalvit et al., J. Biomol. NMR 11:437-444 (1998).
A number of PBBA related compounds were screened with WaterLOGSY to identify those that bound to p38α. Of the compounds shown in FIG. 6, two were identified by cross-saturation experiments (with 10 μM unactivated p38α, 1.5 s to 3.0 s saturation with a train of IBURP pulses) to interact with TTM2001.082.A10 as indicated by the arrows.

[3] = target: activated p38α protein kinase (Homo sapiens, UniProt Q16539); experiment: 1D saturation transfer difference with selective saturation of antenna methyl of TTM2002.143.A27; format: binding; details: 2 s saturation at 3.0 ppm, 4° C.
Sequence of activated p38α protein kinase (Q16539 whole entry): as above
Source text: The 25 compounds from the MOTIF library described in Example IV were screened for proximal binding near the ligand-probe as follows. Samples were obtained containing 100 to 1000 micromolar concentrations of the TTM2002.143.A27 ligand-probe, 10 to 50 micromolar concentrations of activated p38α protein kinase, and one of the 25 compounds at a concentration of 100 to 1000 micromolar. Samples were screened for the presence of second ligands binding proximal to the common ligand-probe by (^1H) 1 dimensional saturation transfer difference experiments using saturations times of 2 s (frequency selective excitation via a train of 232 6 ms τ pulses with a GAUSS profile at an 80 Hz RF field strength) with solvent suspension using WATERGATE at 4° C.

p38α [4] = target: T1, p38α; experiment: 1D 1H NMR line broadening; format: binding; details: 50 micromolar compound, 10 μM p38α
Method: The ability of TTM2001.101.A09 to bind to p38α was determined by comparing the degree of line broadening in 1D ^1H NMR spectra for the compound in the presence of p38α compared to in the absence of p38α.

p38α [5] = target: T1, p38α; experiment: WaterLOGSY competition experiments (displacement of PBBA); format: binding
Source text: A peptide having the sequence […] (SEQ ID NO:1) is a known phosphorylation substrate for p38α as described, for example, in Chen et al. Biochemistry 39:2079-2087 (2000). […] This site is shown in the lower panel of FIG. 7, and is referred to as the SL (specificity ligand) site, since extending a bi-ligand library into this site off of an ATP mimic might provide additional specificity.

Sequence of p38α MAP kinase (Q16539 whole entry, the tested form may be a part): as the sequence (Q16539 whole entry) above

CCCCc1ccc(C(=O)O)cc1 [PBBA, p-butyl benzoic acid]
inhibition of phosphorylation of MBP protein by p38α (in words) (p38α MAP kinase): inhibit phosphorylation of MBP protein by p38α
ability to displace fluorescently tagged staurosporine (p38α [1]): not able to displace a fluorescently tagged staurosporine
binding to p38α by WaterLOGSY cross-saturation [2]: showed cross-saturation effects with p38α indicating binding to the protein

CCCCCc1ccc(N)cc1 [PPA, p-pentyl-aniline]
intensity change of aromatic protons on selective saturation of antenna methyl protons [3]: showed a reduction in the intensity on selective saturation of the methyl protons

O=C(O)c1ccc(CCCCCCSCc2cc(-n3cnc4cc(C(=O)O)ccc43)ccc2F)cc1 [TTM2001.101.A09]
Kd (p38α MAP kinase; IC50 corrected for high ATP concentration, read-out: Kd for binding between p38α and compound): ~300 nM
IC50 (p38α MAP kinase; read-out: IC50, inhibition of myelin basic protein phosphorylation by p38α): 1700 nM
fold tighter than either of the starting fragments (p38α MAP kinase; versus starting fragments PBBA and TTM2001.082.B09): greater than 100 fold
line broadening in 1D 1H NMR spectrum in presence of p38α (p38α [4]): significant line-broadening

SEQ ID NO:1: peptide IPTTPITTTYFFFKKK, known phosphorylation substrate for p38α
ability to displace PBBA from p38α, WaterLOGSY competition (p38α [5]): could not displace PBBA from p38α
